In test [1] the test system is intestinal inflammatory disease (IID) induced by 3% dextran sulfate sodium. Put plainly: Intestinal inflammatory disease induced by dextran sulfate sodium (DSS) in the mouse. In kind it is in vivo, mice of strain C57BL/6J-664. To be noted: for disease clinical score (0 to 6 scale): two DSS cycles. The text has this: The induction of the intestinal inflammatory disease described below is a representative model for the evaluation of therapeutic strategies to treat Crohn's disease and ulcerative colitis. 7-8 week old female mice of strain C57BL/6J-664 were used. The intestinal inflammatory disease (IID) was induced by feeding the mice with 3% dextran sulfate sodium (DSS; MW 40,000) dissolved in drinking water in 2 cycles. Each cycle consisted of 7 days with 3% DSS in the drinking water separated by 7 days with regular water. A daily clinical evaluation of the animals was performed in which the body weight, the consistency of the faeces and the presence of blood in the faeces were determined. Thus, the validated score of the clinical activity of the disease was evaluated with a 0 to 6 scale, considering the following parameters: consistency of the faeces, presence or absence of fecal blood and loss of weight.
At the end of the first cycle of exposure to DSS, the mice were divided into the following treatment groups: a first group was administered intraperitoneal (i.p) injections of vehicle (0.9% NaCl). Another group received intramuscular injections of Solu-Medrol, a standard IID treatment, at a dose of 10 mg/kg/day. A third group was administered i.p. injections of potassium 2,5-diacetroxybenzene sulfonate (DABS, 100 mg/kg/day). The last group was treated orally with 125 mg/kg day of DABS.

Test [2] has as its system OVA-sensitized mice. The test is described as follows: Experimentally induced (OVA) asthma in mice: methacholine bronchoconstriction and BAL cell count. In kind it is in vivo, Balb/c mice. The following applies: for methacholine induced bronchoconstriction (Penh): methacholine 5 and 20 mg/mL. The procedure:
6-9 week old Balb/c mice were used. The ovoalbumin (OVA)/aluminum complex was obtained after dissolving OVA (500 μg/mL) in PBS, and mixing it with an equal volume of 10% aluminum potassium sulfate at pH 6.5 for 1 hour. After centrifuging the pellet (750×g for 5 minutes) the OVA/aluminum pellet was resuspended in distilled water. On day 0, the mice were intraperitoneally injected with 100 μg of OVA/aluminum. Eight days later, the mice were anesthetized and exposed to 250 μg of OVA. Later, they were administered 125 μg of OVA on days 15, 18 and 21. Each […] received sublingual administration of OVA.
The following treatments were administered to the animals: (i.p.) vehicle from day 2, potassium 2,5-diacetoxybencene sulfonate (DABS; 100 mg/kg/day, i.p.) from day 2, DABS (100 mg/kg/day, i.p.) from day 8 and Combivent (20 μg/200 μg in aerosol) on days 20, 21 and 22, the latter as a reference treatment.
In order to evaluate the pulmonary function, the response to methacholine in conscious mice was determined, 24 hours after the last exposure to OVA. The mice were exposed to increasing methacholine concentrations (5 and 20 mg/mL) in the form of aerosol using an ultrasonic nebulizer during 2 minutes. The degree of bronchoconstriction was expressed as the enhanced […] (Penh) which correlates to the mouse air resistance, impedance and pressure within the pleura. The Penh was calculated using the formula Penh=[(Te/Rt−1)×(PEF/PIF)], where Te is expiratory time, Rt is relaxation time, PEF is peak expiratory flow and PIF is peak inspiratory flow×0.67 coefficient.
After measuring airway hyperreactivity, the mice were sacrificed and bronchoalveolar lavage (BAL) of the right lung was collected. The total number of cells in the BAL fluid was determined.

The test system of test [3] is Leishmania major. The test is described as follows: Experimental infection with Leishmania major in mouse paw pad (lesion size). Type of test: in vivo, Leishmania major in BALB/c female mice. The text has this:
This model is based in the massive inoculation of Leishmania promatigotes in the mouse paw pad. Under these conditions, the parasite induces a progressive inflammation correlated with the multiplication of parasites at the site of inoculation. BALB/c strain female mice that developed severe and uncontrolled injuries were used (Foote S J, Handman E. Brief Funct Genomic Proteomic, 2005). This model has been used in pharmacology to monitor the therapeutic capacity of new leishmanicide compounds and the preventive capacity of potential vaccines against leishmaniasis ((Nelson K G et al. Antimicrob Agents Chemother. 2006).
The animals were inoculated with 5×10^6 of L. major promastigotes (strain Hervás) in 50 μL of PBS into the plantar pad of the right back paw. As negative control of the infection, a group of mice inoculated with 50 μL of PBS was used. The sizes of the lesions were measured every 7 days until the animals were sacrificed (week 9) using a Vernier caliper. The thickness of the right back paw (infected) and the left back paw (uninfected) of all the animals was measured at the base of the fifth toe. The progression of the inflammation is represented as the difference in thickness between the infected and the non-infected paws. […]

The subject of test [4] is fibroblast growth factor-1 (FGF-1) induced mitogenesis in Balb/c 3T3 fibroblasts. The test is described as follows: Inhibition of FGF-1 induced mitogenesis in quiescent Balb/c 3T3 fibroblast cultures. The following applies: quiescent cultures of Balb/c 3T3 fibroblasts. In kind it is cell-based. The procedure:
The evaluated compounds were used in the form of potassium salt, except in the first case in which calcium salt was used. The experiments were carried out as described in Fernández-Tornero C et al. J Biol Chem, 2003.

Test [5] relates to rat C6 glioma cells. The test is described as follows: Proliferation of rat glioma C6 cells (crystal violet). In kind it is cell-based. The following applies: 500 μM, 48 h, crystal violet absorbance at 595 nm. The procedure:
FIG. 19. […] 5A-2HBS and 2A-5HBS were administered or not (control) after seeding C6 cells in 24 well plates (10^4 per well) until they were fixed 48 hours later. Data are expressed as the mean ±SEM of the percentage of absorbance at 595 nm obtained in control cultures, which is proportional to the number of cells stained with crystal violet. Data were obtained from 3 cultures for each treatment and 6 control cultures.
The cell line used was the C6 cell line and the experiment was carried out as described in examples 2 and 3. Once adhered, the cells were treated or not (controls) with (5A-2HBS) (500 μM) or (2A-5HBS) (500 μM) and they were allowed to proliferate for 48 h. After this time the glioma cell proliferation was evaluated by means of staining the fixed cells with crystal violet. The number of cells is proportional to the amount of retained dye, which was determined spectrophotometrically by measuring the absorbance at 595 nm once the dye was extracted from the cells.

Test [6] addresses fibroblast growth factor-1 (FGF-1) (Homo sapiens, UniProt P05230). Put plainly: Co-crystallization with FGF-1 (crystal diffraction). Type of test: binding. The following applies: electron density contoured at 1σ, site close to that of 2,5-dihydroxybenzenesulfonic acid. Here is the method: Based on the crystal diffraction of the FGF-1:2-acetoxy-5-hydroxybenzene sulfonic acid, FGF-1:5-acetoxy-2-hydroxybenzene sulfonic acid and FGF-1:2,5-diacetoxybenzene sulfonic acid complexes, the structures of the complexes were calculated and represented. FIGS. 20, 21 and 22, which show the surface of the dyed protein according to its electrostatic potential (light grey: negative charge; dark grey: positive charge; white: lack of charge), show the manner in which 2-acetoxy-5-hydroxybenzene sulfonic acid, 5-acetoxy-2-hydroxybenzene sulfonic acid and 2,5-diacetoxybenzene sulfonic acid interact, respectively, with FGF-1.

Entries after “also recorded” stand apart in the source; their conditions may differ.

These results are taken from patent publication US20080114063A1, “Use of 2,5-Dihydroxybenzene Derivatives for the Treatment of Tissue Reactive Diseases” (Action Medicines, priority 2006, published 2008).

Chain of fibroblast growth factor-1 (FGF-1) (P05230 whole entry, species assumed): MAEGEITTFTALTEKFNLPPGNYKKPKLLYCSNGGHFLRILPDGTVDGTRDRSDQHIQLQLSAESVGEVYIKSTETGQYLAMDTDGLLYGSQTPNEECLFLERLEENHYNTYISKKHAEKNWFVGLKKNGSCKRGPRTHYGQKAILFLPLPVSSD

Consider `CC(=O)Oc1ccc(OC(C)=O)c(S(=O)(=O)[O-])c1.[K+]` [DABS, potassium 2,5-diacetoxybenzene sulfonate], for which the “disease clinical score (0 to 6 scale)” value in test [1] (100 mg/kg/day i.p.) and in test [1] (125 mg/kg/day orally) was “reduced” in each case. In addition, the “loss of body weight produced by DSS” value in test [1] (DABS 100 mg/kg/day i.p. or 125 mg/kg/day p.o., two 7-day DSS cycles, vs vehicle) is recorded as “reduced; also recorded: significant effect on the body weight”. For the same molecule, the “efficacy compared with standard treatment Solu-Medrol (body weight and clinical score)” value in test [1] (DABS i.p. or p.o. vs Solu-Medrol 10 mg/kg/day i.m.) is listed as “not lower (in some points it is higher)”. Further, the “methacholine induced bronchoconstriction (Penh)” value in test [2] (100 mg/kg/day i.p. from day 2) and in test [2] (100 mg/kg/day i.p. from day 8) was “completely prevented” each time. For the same molecule, in test [2] (100 mg/kg/day i.p., right lung BAL, vs vehicle), the “presence of cells in bronchoalveolar lavage (BAL)” value is listed as “significantly reduced”. Also, the “increase of the Penh after exposure to methacholine vs saline” value in test [2] (mouse, in vivo) is “do not show a significant increase of the Penh”. The “reduction of BAL cells compared with Combivent” value in test [2] (mouse, in vivo) is “even more than the treatment with Combivent”. The “size of the lesion (paw thickness difference)” value in test [3] (200 mg/kg daily i.p. from day 0 to week 9, effect from the third week post-infection) is “statistically significant reduction in the size of the lesion”; in test [3] (200 mg/kg/day i.p. from the third week after inoculation, effect from the eighth week), “significantly smaller”. In addition, the “inhibition of FGF-1 induced mitogenesis” value in test [4] is “Inhibition of FGF-1 induced mitogenesis”.
`CC(=O)Oc1ccc(O)c(S(=O)(=O)[O-])c1.[K+]` [5A-2HBS, potassium 5-acetoxy-2-hydroxybenzene sulfonate]: in test [4], the “inhibition of FGF-1 induced mitogenesis” value was “Inhibition of FGF-1 induced mitogenesis”. For the same molecule, the “rat glioma cell proliferation” value in test [5] is “inhibition of rat glioma cell proliferation”.
For the molecule `CC(=O)Oc1ccc(O)cc1S(=O)(=O)O` [2-acetoxy-5-hydroxybenzenesulfonic acid], the “state of the compound when bound to FGF-1 (co-crystal electron density)” value (“state of the compound when bound” for short) in test [6] is “conserves the acetoxyl group in position 2 when it binds to the protein”.
For `CC(=O)Oc1ccc(OC(C)=O)c(S(=O)(=O)O)c1` [2,5-diacetoxybenzenesulfonic acid], the “state of the compound when bound” value in test [6] was “conserves the acetoxyl groups in positions 2 and 5 when it binds to the protein”.
As to `C[C@H]1C[C@@H]2[C@H]([C@@H](O)C[C@@]3(C)[C@H]2CC[C@]3(O)C(=O)COC(=O)CCC(=O)O)[C@@]2(C)C=CC(=O)C=C12` [Solu-Medrol, reference compound], the “effect on body weight” value in test [1] (Solu-Medrol 10 mg/kg/day i.m., two 7-day DSS cycles, vs vehicle) is listed as “significant effect on the body weight”.
“calcium 2-acetoxy-5-hydroxybenzenesulfonate [2A-5HBS]”: the “inhibition of FGF-1 induced mitogenesis” value in test [4] is on record as “Inhibition of FGF-1 induced mitogenesis”.
Consider `CC(=O)Oc1ccc(O)c(S(=O)(=O)O)c1` [5-acetoxy-2-hydroxybenzenesulfonic acid], for which the “state of the compound when bound” value in test [6] is on record as “conserves the acetoxyl group in position 5 when it binds to the protein”.
